From a melting point compilation (Tetko et al.; mined from patent text by program, amines drawn as free bases though some values may be those of a salt)

`CC(=O)Nc1cccc(-c2ccc(C#N)c(=O)[nH]2)c1` gave a melting point of 326 to 328 °C. `Cc1cc(CCCCCOc2c(Cl)cc(-c3nnc(C)o3)cc2Cl)on1` gave a melting point of 71 to 72 °C. `C=C1C(=O)N[C@@H](Cc2ccccc2)C(=O)N1C(C)C` gave a melting point of 141 to 142 °C. For `O=C(Nc1cccc(C(F)(F)F)c1)c1ccccc1O`, the melting point was 188 to 191 °C. For `CNC(=O)c1cc(=O)c2ccccc2o1`, the melting point was 224 to 225 °C. With `COc1sc(-c2cc[nH]n2)c2c1C(=O)CC(C)(C)C2` the melting point was 202 to 204 °C. `O=C(O)c1cnccc1Cc1cc(Cl)ccc1F` showed a melting point of 174 to 176 °C. Compound `CN1CCN(C(=O)Nc2ccccc2CCc2cc(C(C)(C)C)c(O)c(C(C)(C)C)c2)CC1` has a melting point of 134 to 137 °C. With `CCOC(=O)C(=O)c1csc(NC(=O)Nc2ccc(Cl)cc2)n1` the melting point was 230 to 234 °C. `CN(C)C=Cc1ncc([N+](=O)[O-])n1CCc1ccncc1` showed a melting point of 190 to 191 °C. For `Cc1nc2cc(Cl)c(Cl)cc2n1C1CC(CO)C(O)C1O` (centres undefined), the melting point was 198 to 200 °C. Compound `O=c1[nH]sc2c1c(=O)c1cc(F)c(N3CCNCC3)cc1n2C1CC1` has a melting point greater than 275 °C. Compound `CCC(=O)N1CCN(C(=O)COC2c3ccccc3C(=O)N2c2ccc3ccc(OC)nc3n2)CC1` (centres undefined) has a melting point of 160 °C. Work on `Cc1cc([N+](=O)[O-])cc(N)c1[N+](=O)[O-]` yielded a melting point of 125 to 127 °C. `CC(O)(C(=O)Nc1ccc(C(=O)c2ccccc2)c(F)c1)C(F)(F)F` (centres undefined) showed a melting point of 132 to 134 °C. Compound `CO[C@@H](Cc1ccc(OCCc2nc(-c3ccc(C(F)(F)F)cc3)oc2C)c2ccsc12)C(=O)O` has a melting point of 173 to 175 °C. `O=CC1=C(c2ccc3sccc3c2)N2CCN=C2S1` gave a melting point of 146 °C. `CC(C)(C)OC(=O)NCc1cccc(C#N)n1` showed a melting point of 85.9 to 86.5 °C. Work on `CC1(C)CC(O)C(C)(C)c2cc(C=O)ccc21` (centres undefined) yielded a melting point of 76 to 78 °C. Work on `N#Cc1ccccc1OCCCN1CCC(NC(=O)C2CCCCC2)CC1` yielded a melting point of 110 to 112 °C. For `Cc1ccc(S(=O)(=O)N2CCC3(C=Cc4ccccc43)CC2)cc1`, the melting point was 168 to 170 °C. In the case of `COCC1OC(n2cnc3c(NCc4cccc(I)c4)ncnc32)C(O)C1O` (centres undefined), the melting point is reported as 155 to 157 °C. In the case of `CCOCCOCCOCCOc1cc(OCCCCCCCCCCCCOc2ccccc2)cc(N(CC(=O)O)CC(=O)O)c1`, the melting point is reported as 58 to 61 °C. With `COC(=O)c1ccccc1S(=O)(=O)N(n1cnn(-c2nc(OC)cc(OC)n2)c1=O)S(=O)(=O)c1ccccc1C(=O)OC` the melting point was 176 °C. Compound `CC1(C)COC(=O)N1c1nc(-c2ccccc2)cs1` has a melting point of 94 to 97 °C. Work on `COc1ccc(Cl)cc1-n1c(N)nnc1-c1ccc(C(F)(F)F)cc1` yielded a melting point of 247 to 248 °C. For `CSC1CC(=O)N1CC(=O)CCCCCCCc1ccccc1` (centres undefined), the melting point was 48 to 51 °C. `Cc1ccccc1C(=O)c1ccc(Nc2ccccc2NS(=O)(=O)c2ccccc2)cc1Cl` showed a melting point of 211 to 215 °C. Work on `O=C1Nc2cc(-c3ccco3)ccc2C2CCCC12F` (centres undefined) yielded a melting point of 203 to 206 °C. With `CCc1nc2c(cnn2CC)c(NC2CCOCC2)c1CNC(=O)c1cc(C)cc(C(=O)NCc2ccc(OC)c(-c3cccc(C=O)c3)c2)c1` the melting point was 117 to 119 °C. `CN(C)C(c1cccc(F)c1)C1CCC(=O)CC1` (centres undefined) showed a melting point of 72 to 75 °C. Compound `CC(O)c1cccc(-c2ccc3nc(-c4ccc(Cl)cc4)cn3c2)c1F` (centres undefined) has a melting point of 193 to 195 °C. For `CO/C=C(/C(=O)OC)c1ccccc1Oc1cccc(N)c1`, the melting point was 83 to 85 °C. With `Nc1ccn2nc(-c3ccccc3)nc2c1` the melting point was 212 to 213 °C. Work on `O=Cc1cc(Br)ccc1OCCc1ccccc1` yielded a melting point of 79 to 80 °C. With `CC1=NC(NC(=O)Nc2cccc(C)c2)C(=O)N(CC(=O)N2CC3CCC(CC3)C2)c2c(C)cccc21` (centres undefined) the melting point was 177 to 179 °C. With `Cn1c(C(F)(F)F)c(-c2ccc(C[C@H](NC(=O)c3c(F)cccc3C(F)(F)F)C(=O)O)cc2)c(=O)n(C)c1=O` the melting point was 122 to 125 °C. Work on `C=Cc1ncc2c(c1O)COC2C` (centres undefined) yielded a melting point of 237 to 238 °C. With `CCCCc1nc(SC)c(Br)n1Cc1ccc(-c2ccccc2S(=O)(=O)N=CN(C)C)cc1` the melting point was 158 °C. With `CNc1c(F)cc2c(=O)c(C(=O)O)cn(-c3ccc(F)c(N)n3)c2c1Cl` the melting point was 233 to 238 °C. Work on `COc1ccc2c3c1OC(c1ccccc1)N3C(=O)C1CCCN1C2=O` (centres undefined) yielded a melting point of 157 to 160 °C. Work on `CCOC(=O)[C@@H](CNC(=O)c1ccccc1)[C@H](O)C(F)(F)F` yielded a melting point of 108 to 110 °C. Compound `CCCCCCCCCCCCCCCCCC(O)c1cc(C(=O)OCC)ccc1O` (centres undefined) has a melting point of 75 °C. Work on `CCOC(=O)CCCN(O)C(=O)NCCc1ccc(OC)c(OC)c1` yielded a melting point of 75 to 76 °C. Compound `C#CC(=O)NCc1ccccc1` has a melting point of 165 to 167 °C. In the case of `Cc1c(Cl)nc(Br)n1S(=O)(=O)c1cccnc1Cl`, the melting point is reported as 144 to 146 °C. `CC(=O)NC[C@H]1CN(c2ccc(C3CCN(C(=O)O)CC3)c(F)c2)C(=O)O1` gave a melting point of 144 to 146 °C. Work on `CC(=O)C=Cc1c(C)c(C)c2c(c1C)CC(C)(C)O2` yielded a melting point of 86 to 87 °C. In the case of `Cn1c(=O)c(-c2ccc(Cl)cc2Cl)cc2c3cc(-c4cocn4)ccc3n(C)c21`, the melting point is reported as 221 to 222 °C.
